Experimental data as given in patent US11865104B2, “Antitumor TET2 modulating compounds” (THE CLEVELAND CLINIC FOUNDATION, priority 2017, dated 2024).
“Also recorded” adds a separate entry of the source.

Legend:
[1] = tested on: MOLM and K562 TET2 knockdown cells; assay: Culture of TET2 knockdown cell lines; assay type: cell-based; settings: preliminary experiments
MOLM13 = assay: Growth suppression / cell survival dose response in leukemia cell lines; assay type: cell-based; settings: Homo sapiens, MOLM-13; MOLM13, least TET2 expression
Text: (§1) FIGS. 3A-3G provide graphs showing the In-vitro efficacy of TETi in the elimination of TET2MTcells. A. Leukemia cell lines express different level of TET2. B. Ratio of TET2 expression vs. Lamin C. The dose response curves of cell survival with different concentration of TETi76 D. LD50 plotted against the relative expression of TET2 and C. E. Colony forming abilities of K562 TET2^+/+ and TET2^−/− cells in the presence and absence of TETi76. Data is representative of 3 independent experiment performed separately. F. Colony forming abilities of two independent normal bone marrow cells (NBM) and SIGM5 cells in MethoCult in the presence and absence of TETi76. Data is the summary of three independent experiments performed separately. G. Bone marrow from Tet2^+/+, Tet2^+/− and Tet2^−/− mice were harvested and cultured in MethoCult in the presence or absence of TETi76.
(§2) Efficacy and specificity of TETi. We used established tet2^+/− vs. tet2^−/− mouse models as well as several human myeloid cell lines selected to harbor TET2^MT or to express low level of TET2 to determine the specificity, establish the read out and provide proof of concept for the proposed strategy. […] The IC50 of different cells against TETi76 is inversely correlated with TET-activity (FIG. 3).

SIGM5 = assay: as above; assay type: cell-based; settings: Homo sapiens, SIG-M5; SIGM5, least TET2 expression
Text: as §1, §2

tet2^MT clones = assay: In vivo mixed bone marrow transplant, CD45.2 vs CD45.1 ratio; design: species or system mice; settings: 80 mg/kg 5 days/week, irradiated CD45.1 recipients transplanted with mixed marrow
Description: FIGS. 4A-4E provide graphs and images showing the In-vivo efficacy of TETi in the elimination of cells with TET2^MT. […] Tet^mt bone marrow cells were mixed in the ratio of 1:2 with tet2^+/+ bone marrow cells isolated from Pep (CD45.1). The mixed bone marrow cells were treated either with DMSO or with TETi76 in MethoCult™. Cells were isolated and ratio of CD45.1 (Pep, tet2^+/+) and CD45.2 (tet2mt) was determined by flow using antibodies against CD45.1 and CD45.2. B. Tet2^+/− bone marrow cells were mixed in the ratio of 1:2 with Tet2^+/+ in MethoCult with the treatment of DMSO or TETi76. Ratio of Tet2^+/− vs Tet2^+/+ was measured by flow. C. […] Ratio of Tet2^+/− vs Tet2^+/+ was measured by flow. […] CD45.1+ vs. CD45.2+ was serially assessed.
To further validate the feasibility of our proposed strategy as a therapeutic principle, we used mixing experiments in which tet2^MT/tet2^WT were co-cultured at fixed ratios to mimic evolving tet2MT clone and the differences in isoform fractions served as read out. […] As expected, tet2^MT grew at faster rate in the controls as reflected in the increased ratio >1:1 of tet2^MT/tet2^WT, while TETi treatment selectively eliminated the tet2^MT cells as determined using CD45.1/CD45.2 surface markers on tet2^WT and tet2^MT bone marrow, respectively (FIGS. 4A&B). […] First we determined MTD utilizing a dose escalation in a group of 3 mice each. […]

K562 = assay: Growth suppression / cell survival dose response in leukemia cell lines; assay type: cell-based, human; settings: K562, high TET2 expressing
Text: as §1, §2

HEL01 = assay: as above; assay type: cell-based, human; settings: HEL01, high TET2 expressing
Text: as §1, §2

[2] = MTD by dose escalation in mice; settings: mouse, in vivo
Description: To further validate the feasibility of our proposed strategy as a therapeutic principle, we used mixing experiments in which tet2^MT/tet2^WT were co-cultured at fixed ratios to mimic evolving tet2MT clone and the differences in isoform fractions served as read out. In long-term culture of normal marrow from B6Cd45.1 Pep Boy vs. B6CD45.2 mice of tet2^+/− and tet2^−/− genetic background. Marrow cell from 3 mice/group were cultured in 1:2 ratio of tet2^MT/tet2^WT with/without TETi. Over the period of culture TETi effectively eliminated otherwise dominating tet2^+/− cells (FIG. 4). As expected, tet2^MT grew at faster rate in the controls as reflected in the increased ratio >1:1 of tet2^MT/tet2^WT, while TETi treatment selectively eliminated the tet2^MT cells as determined using CD45.1/CD45.2 surface markers on tet2^WT and tet2^MT bone marrow, respectively (FIGS. 4A&B). […] In vivo efficacy of TETi. […] First we determined MTD utilizing a dose escalation in a group of 3 mice each. […] The MTD was determined at 168 mg/kg. […] Once mice were fully recovered as determined by their weight, the ratio of tet2^MT and tet2^WT marrow was confirmed by CD45.1/CD45.2 cytometry prior to treatment. […] Ratio of CD45.2 vs. CD45.1 was determined at different time points (FIGS. 4D&E). […]

K562 TET2^KO cells = assay: Colony forming assay in TET2 knock-out K562 cells; assay type: cell-based, human; settings: K562 TET2^KO vs K562
Text: as §1, §2

Gulo^−/−Tet2^+/− cells = assay: hmC level in Gulo^−/−Tet2^+/− cells; assay type: cell-based
Text: We optimized assays to assess the impact of mutation or haploinsufficiency on dioxygenase activity in our laboratory. We deployed 2 independent methods for the quantification of hmC/mC. First, a semi quantitative method of dot blot and second a highly sensitive 2D-UPLCMS method. These methods were used to determine the relative activity of TET2 enzymatic function. We can quantify TET2 dioxygenase activity products in cell lines and patient's bone marrow cells with various types of TET2^MT (FIG. 3E) in genetically modified (retrovirally-transduced TET2 shRNA) K562 and MOLM13 cells and bone marrow from Tet2^−/− and Tet^+/− mice. As expected, haploinsufficiency of TET2 leads to gene-dose dependent decreases in 5hmC and further oxidized products.

| Compound | inhibitory effects compared to cells with scrambled shRNA [1] | IC50 (MOLM13) [µM] | IC50 (SIGM5) [µM] | growth of tet2^MT clones in vivo (ratio CD45.2 vs CD45.1) (tet2^MT clones) | sensitivity to treatment (K562) | sensitivity to treatment (HEL01) | mortality at MTD [2] | MTD at 3 months ([2]; dose escalation, groups of 3 mice, 5 days a week, weekly dose increments) [mg/kg] | colony forming, effect of TET2 knock-out on sensitivity (K562 TET2^KO cells) | levels of TET2 product hmC (Gulo^−/−Tet2^+/− cells) |
| --- | --- | --- | --- | --- | --- | --- | --- | --- | --- | --- |
| COC(=O)CCC(=O)C(=O)OC [DMKG] | differential and dose-dependent inhibitory effects |  |  |  |  |  |  |  |  |  |
| C=C(CC(O)C(=O)OCC)C(=O)OCC (centres unmarked) [TETi76] |  | 9.6 | 11.2 | most pronounced against tet2^−/− compared to tet2^+/− genotype; also recorded: prevents clonal expansion Tet2MT cells in vivo | lowest sensitivity | lowest sensitivity | no mortality | 168 | sensitized these cells to TETi76 |  |
| O=C1O[C@H]([C@@H](O)CO)C(O)=C1O [vitC, vitamin C] | differential and dose-dependent inhibitory effects |  |  |  |  |  |  |  |  | increases levels of the TET2 product hmC |
